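Where inhibition never reached the appropriate level, the endpoint shown equals the highest concentration tested. Otherwise, values were interpolated linearly from a five-concentration, 48-hour dose response in 96-well plates. Here, GI50 denotes the concentration required for 50% inhibition of growth.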 The source made the active and inactive calls. No stated cut-off is given here; in the data, active = GI50 up to about 1.1 µM and inactive = higher.
Assays:
Assay in all cases: NCI anticancer screen, dose series, 48 h
[1] = system: RXF 393
[2] = system: LXFL 529
[3] = system: NCI-H522
[4] = system: HL-60
[5] = system: IGROV-1
[6] = system: OVCAR-4
[7] = system: UACC-257
[8] = system: CAKI-1
[9] = system: M14
[10] = system: COLO 205
[11] = system: SW-620
[12] = system: HCC 2998
[13] = system: OVCAR-5
[14] = system: A498
[15] = system: LOX IMVI
[16] = system: MDA-MB-231
[17] = system: MCF7
[18] = system: Hs-578T
[19] = system: PC-3
[20] = system: NCI/ADR-RES

Measured: GI50

CCC12C=CCN3CC[C@]4(C(=C(C(=O)OC)[C@@H]1Nc1ccn(C5OC(COC(C)=O)C(OC(C)=O)C5OC(C)=O)c(=O)n1)Nc1ccccc14)C32 (stereo not given in full)
inactive: [1] 3.12 µM | [2] 4.42 µM | [3] 3.84 µM | [4] 4.51 µM | [5] 5.25 µM | [6] 1.72 µM | [7] 1.26 µM | [8] 5.37 µM | [9] 4.18 µM | [10] 4.59 µM | [11] 4.66 µM | [12] 4.3 µM | [13] 1.82 µM | [14] 5.19 µM | [15] 4.26 µM

CC(=O)NC(CCCN(Cc1ccccc1)C(=O)NCCCl)C(=O)NCc1ccccc1 (stereo not given)
inactive: [1] > 100 µM | [2] > 100 µM | [3] > 100 µM | [4] > 100 µM | [5] > 100 µM | [6] > 100 µM | [7] > 100 µM | [8] > 100 µM | [9] > 100 µM | [10] > 100 µM | [11] > 100 µM | [12] > 100 µM | [13] > 100 µM | [14] > 100 µM | [15] > 100 µM

Cc1c(C(=O)Nc2ccc(Cl)c(C(F)(F)F)c2)oc2cc(O)ccc2/c1=N\NC(N)=S
inactive: [1] > 100 µM | [2] > 100 µM | [3] > 100 µM | [4] > 100 µM | [5] > 100 µM | [6] > 100 µM | [7] > 100 µM | [8] > 100 µM | [9] > 100 µM | [10] > 100 µM | [11] > 100 µM | [12] > 100 µM | [13] > 100 µM | [14] > 100 µM | [15] > 100 µM

Cc1ccc(S(=O)(=O)N/N=C(\c2nc3ccc(Cl)cc3nc2O)C(O)c2cccc([N+](=O)[O-])c2)cc1 (stereo not given)
inactive: [1] > 100 µM | [2] > 100 µM | [3] 63.4 µM | [4] > 100 µM | [5] > 100 µM | [6] > 100 µM | [7] > 100 µM | [8] > 100 µM | [9] > 100 µM | [10] > 100 µM | [11] > 100 µM | [12] > 100 µM | [13] > 100 µM | [14] > 100 µM | [15] > 100 µM

CC(C)(C)C1CCC2(CC1)CCN(CCCN1CCOCC1)CC2
inactive: [16] > 100 µM | [17] > 100 µM | [1] 27.4 µM | [2] 8.36 µM | [18] 35 µM | [3] > 51.1 µM | [4] 13.1 µM | [19] > 100 µM | [5] > 65 µM | [6] > 93.8 µM | [7] 11.9 µM | [8] > 34.7 µM | [9] 12.2 µM | [10] 16.3 µM | [11] > 42.8 µM | [12] 16.9 µM | [13] > 60 µM | [14] 34.7 µM | [15] 18.9 µM | [20] > 100 µM

From ChEMBL document CHEMBL1201862, “PubChem BioAssay data set” (2004)
